Patent US10995068B2, “Synthetic sphingolipid-like molecules, drugs, methods of their synthesis and methods of treatment” (The Regents of the University of California, priority 2015, dated 2021)

How the values were obtained:
[1] = Mass spectrometry quantification of SH-BC-893 in plasma and tumor; type: in vivo; details: SW620 xenograft mice, UPLC-MS/MS
Experimental: In many embodiments, exemplary experimentation was carried out to determine whether azacyclic constrained sphingolipid-lipid molecules inhibited neoplastic growth in vivo. To carry out this experimentation, luciferase-expressing SW620 xenografts were generated in mice.
Mass spectrometry quantification of SH-BC-893. As an internal standard, 75 ng FTY720 was added to 50 μl plasma or 50 μl of tumor homogenate (0.25 M sucrose, 25 mM KCl, 50 mM Tris HCl, 0.5 mM EDTA, pH 7.4; 1:9 wt:volume) combined 1:1 with acetonitrile. Proteins were precipitated and removed by centrifugation (10 min at 15,000 rpm) and the supernatant transferred to a fresh tube on ice containing 50 μl of acetonitrile+0.2% acetic acid. After a second de-proteination with acetonitrile+0.2% acetic acid, 20 μl of de-proteinated samples were analyzed by UPLC-MS/MS using a Waters Micromass Quattro Premier XE equipped with a C18 reversed phase column (Waters) with an acetonitrile+0.2% acetic acid gradient elution. The instrument was operated in positive ion mode. Ion transition channels for multiple reaction monitoring were 290→104 for SH-BC-893 with a dwell time of 200 msec. The cone voltage was 30V. Standard curves used for quantitation were linear from 50-1000 ng/ml with an R^2 of 0.98 or greater. Recovery of internal standard was >80%. Tumor concentrations were calculated assuming that 1 gm=1 mL.

[2] = Blood cell count of pDKO mice; type: in vivo; details: for % lymphocyte / % neutrophil / Red Blood Cells / White Blood Cells / Hematocrit: pDKO mice, at sacrifice; for White Blood Cells: Means ± SEM, n = 4; for Hematocrit: in % (unit assumed)
Experimental: In vivo studies. Experiments conducted in mice were performed in accordance with the Institutional Animal Care and Use Committee of University of California, Irvine following a power analysis conducted in consultation with the Biostatistics Shared Resource of Chao Family Comprehensive Cancer Center at UCI. Xenografts were produced by injecting 5 million cells subcutaneously in the flank of 10-16 week-old male or female NSG mice. Prostate isografts were produced in the same manner but in male 6-8 wk old C57BL/6 mice. Once tumors reached 100 mm^3, SH-BC-893 was administered by intraperitoneal (i.p.) injection or oral gavage as indicated. Tumor volume was calculated using the formula, volume (mm^3)=length [mm]×(width [mm])^2×0.52; BLI was measured using an IVIS imaging system (Xenogen). To generate pDKO mice on the C57BL6 background, Pten^flox mice (stock No. 0045597) and p53^flox mice (stock No. 008462) were obtained from the Jackson Laboratory and PB-Cre4 mice (strain #01XF5) were obtained from the NCI-Frederick Mouse Repository. Age-matched cohorts of pDKO males were generated by in vitro fertilization executed with the assistance of the Transgenic Mouse Facility at UC Irvine. Treatment was begun at 6-7 wks of age. […] Tumor samples were processed and imaged by the Pathology Research Services Core Facility at UC Irvine. Blood chemistry was analyzed by IDEXX BioResearch and complete blood counts were performed using a Hemavet hematology system.

Structure (SMILES): CCCCCCCCc1ccc([C@H]2CCN[C@@H]2CO)cc1.Cl [Compound 5, (2S,3R)-2-(hydroxymethyl)-3-(4-octylphenyl)Pyrrolidinium chloride]
- concentration in plasma at sacrifice [1]: low micromolar concentrations
- concentration in tumors at sacrifice [1]: low micromolar concentrations
- complete blood counts (in words) ([2]; mice treated with 120 mg/kg for 11 weeks): normal complete blood counts
- % lymphocyte ([2]; 60 mg/kg): 77 ± 4%
- % neutrophil ([2]; 60 mg/kg): 14 ± 3%
- Red Blood Cells ([2]; 60 mg/kg): 8 ± 1 M/μL
- White Blood Cells ([2]; 60 mg/kg): 5 ± 1 10^3 cells/μL
- Hematocrit ([2]; 60 mg/kg): 32 ± 5
- % lymphocyte ([2]; 120 mg/kg): 73 ± 5%
- % neutrophil ([2]; 120 mg/kg): 19 ± 5%
- Red Blood Cells ([2]; 120 mg/kg): 9 ± 1 M/μL
- White Blood Cells ([2]; 120 mg/kg): 8 ± 1 10^3 cells/μL
- Hematocrit ([2]; 120 mg/kg): 41 ± 3
